Assay [1] concerns Template_5.2 with 5.2 primer (DNA, G4) CCGCGCGGTGAGTCTAGGGCCTGGCACGACCCCTCTAGGGCGGCGTAATGTCCAGACCCA/CGTGGGTCTGGACAT
Description: polymerase stop (primer extension). The following applies: KCl, 1 mM MgCl2; 40 mM Tris-HCl pH 8.0, 40 °C; ligand 0-20 μM; truncated products.

Assay [2] deals with Template_8.1 with 8.1 primer (DNA, G4) CTGCCTGACAAGGGCTAGGGGGAGATCTGTGTTGGGTGACCAGGGCCATAAGTAAATTTCATCATACT/AGTATGATGAAATTTACTTATGG
Description: polymerase stop (primer extension). To be noted: KCl, 1 mM MgCl2; 40 mM Tris-HCl pH 8.0, 40 °C; ligand 0-20 μM; truncated products.

In assay [3] the test system is WT_5.1 (Oligo 5.1) (DNA, G4) TAGAGGACAGCGGGGAAGGCGGGCGGTGGGGCAGGGGGCCTGAAGCGGCGGTACCGGTGCTGGCGGCGGCAGCTGAGGCC
Description: fluorescent intercalator displacement (G4-FID). The following applies: TO displaced; ligand 0-2.5 μM.

In assay [4] the test system is WT_5.2 (Oligo 5.2) (DNA, G4) CCGCGCGGTGAGTCTAGGGCCTGGCACGACCCCTCTAGGGCGGCGTAATGTCCAGACCCA
Briefly: fluorescent intercalator displacement (G4-FID). To be noted: TO displaced; ligand 0-2.5 μM.

For assay [5], the system named is WT_5.3 (Oligo 5.3) (DNA, G4) CGGCCAGCCTGCCCGTGGGGGGGCCAGGGGAAGCCGCCCGTCTGGGACGTGGGGTCCCCA
Description: fluorescent intercalator displacement (G4-FID). The following applies: TO displaced; ligand 0-2.5 μM.

Assay [6] deals with WT_8.1 (Oligo 8.1) (DNA, G4) CTGCCTGACAAGGGCTAGGGGGAGATCTGTGTTGGGTGACCAGGGCCATA
Description: fluorescent intercalator displacement (G4-FID). To be noted: TO displaced; ligand 0-2.5 μM.

Assay [7] deals with WT_14.1 (Oligo 14.1) (DNA, G4) AAAGGGAAGTATGGCTGGTGTACCGGGAGCAAGGGAGAGGGAAGGAGGGGCCAAATTAATAGGCCCACGGT
Description: fluorescent intercalator displacement (G4-FID). The following applies: TO displaced; ligand 0-2.5 μM.

The test system of assay [8] is WT_14.2 (Oligo 14.2) (DNA, G4) ATAGAGAGTGATGGGGAGGGGGTGAGTGGAGGGTCAAGGAAGGCCCTCCCTGAGGTGGTGTTATTTGACGGGGGTCCACA
Description: fluorescent intercalator displacement (G4-FID). To be noted: TO displaced; ligand 0-2.5 μM.

The subject of assay [9] is WT_5.1R (RNA, G4) GCGAAAGGGGAAGGCGGGCGGUGGGGCAGGGGGCCUGAAGCGGCCUAGCUGUAGCUGACUGCA
Briefly: fluorescence enhancement. To be noted: no added monovalent cation; 10 mM Tris-Cl pH 7.5, 0.01 mM EDTA, 25 °C; 2 μM RNA, 2 μM ThT; ~160-fold enhancement.

Assay [10] concerns WT_5.1 (Oligo 5.1) (DNA, G4) TAGAGGACAGCGGGGAAGGCGGGCGGTGGGGCAGGGGGCCTGAAGCGGCGGTACCGGTGCTGGCGGCGGCAGCTGAGGCC
Briefly: fluorescence enhancement. The following applies: 1 μM DNA, 2 μM TO.

For assay [11], the system named is WT_14.1 (Oligo 14.1) (DNA, G4) AAAGGGAAGTATGGCTGGTGTACCGGGAGCAAGGGAGAGGGAAGGAGGGGCCAAATTAATAGGCCCACGGT
Description: fluorescence enhancement. To be noted: 1 μM DNA, 2 μM TO.

Assay [12] deals with WT_14.2 (Oligo 14.2) (DNA, G4) ATAGAGAGTGATGGGGAGGGGGTGAGTGGAGGGTCAAGGAAGGCCCTCCCTGAGGTGGTGTTATTTGACGGGGGTCCACA
Description: fluorescence enhancement. To be noted: 1 μM DNA, 2 μM TO.

The test system of assay [13] is WT_40.1 (Oligo 40.1) (DNA, G4) GGGGGCGGGGGCGGGGGTGGGGGGAAGAAAAATTCCTAGCTGTAGCTGACTGCA
Briefly: fluorescence enhancement. The following applies: 10 mM Tris-Cl pH 7.5, 25 °C, 1 μM DNA, 2 μM TO.

Our source for the binding and DC50 values is PMC10827794 (2024).

The structures appear in SMILES notation.

As to `C[n+]1ccc(-c2c3nc(c(-c4cc[n+](C)cc4)c4ccc([nH]4)c(-c4cc[n+](C)cc4)c4nc(c(-c5cc[n+](C)cc5)c5ccc2[nH]5)C=C4)C=C3)cc1`, the binding result in assay [1] and in [2] was “yes” each time. The DC50 amounted to 880 nM in assay [3]; 1039 nM in assay [4]; 956.3 nM in assay [5]; 479.1 nM in assay [6]; 897.7 nM in assay [7]; 629.6 nM in [8].

On to `Cc1ccc2c(c1)sc(-c1ccc(N(C)C)cc1)[n+]2C`, for which the binding entry in [9] is given as “yes”.

Turning to `CN1C(=Cc2cc[n+](C)c3ccccc23)Sc2ccccc21`, the binding entry is recorded as “yes” in assay [10]; “yes” in [11]; “yes” in assay [12]; “yes” in assay [13] (100 mM KCl, enhancement lower than without K+); “yes” in [13] (no added monovalent cation, ~330-fold enhancement).
